# The supplement of paper PMC11061612
# Tests used:
# [1] = compound: CC(C)n1c(=O)n(C)c2cnc3cc(F)c(-c4ccc(OCCCN5CCCCC5)nc4)cc3c21 [AZD1390]; conditions: max 0.3 µM
# Procedure, shortened: (§1)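 Cancer cell lines were plated in 1536-well plates in 7.5 μl of DMEM/F12 or RPMI with 10% FBS and kept 24 hours at 37°C and 5% CO2 before 72 hours of dosing, with final DMSO typically 0.2%. CellTiter-Glo 2.0 luminescence measured viability, scaled between blank-well and DMSO-well means. Dose responses were fitted to a two-parameter logistic curve with a non-linear mixed effects model. This fit gives the single-agent IC50.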
# [2] = compound: CC(=O)c1c(C)c2cnc(Nc3ccc(N4CCNCC4)cn3)nc2n(C2CCCC2)c1=O [Palbociclib]; conditions: max 10 µM
# Procedure, shortened: as §1
# [3] = compound: Nc1ccn([C@@H]2O[C@H](CO)[C@@H](O)C2(F)F)c(=O)n1 [Gemcitabine]; conditions: max 0.3 µM
# Procedure, shortened: as §1
# [4] = compound: COc1cccc2c1C(=O)c1c(O)c3c(c(O)c1C2=O)C[C@@](O)(C(=O)CO)C[C@@H]3O[C@H]1C[C@H](N)[C@H](O)[C@H](C)O1 [Doxorubicin]; conditions: max 1 µM
# Procedure, shortened: as §1
# [5] = compound: CC1(C)CCC(CN2CCN(c3ccc(C(=O)NS(=O)(=O)c4ccc(NCC5CCOCC5)c([N+](=O)[O-])c4)c(Oc4cnc5[nH]ccc5c4)c3)CC2)=C(c2ccc(Cl)cc2)C1 [Venetoclax]; conditions: max 1 µM
# Procedure, shortened: as §1
# [6] = compound: COc1nnc2ccc(N3CCC(c4ccc(OCCN5CCN(C)C(=O)[C@H]5C)cc4)CC3)nn12 [AZD5153]; conditions: max 1 µM
# Procedure, shortened: as §1
# [7] = compound: Cc1cc2ncnn2cc1Nc1ncc2c(n1)n(C1CCOCC1)c(=O)n2C [AZD7648]; conditions: max 10 µM
# Procedure, shortened: as §1
# [8] = compound: CN(CC[C@H](CSC1=CC=CC=C1)NC2=C(C=C(C=C2)S(=O)(=O)NC(=O)C3=CC=C(C=C3)N4CCC(CC4)[C@H](C5=CC=CC=C5C6=CC=C(C=C6)Cl)O)S(=O)(=O)C(F)(F)F)CCO [AZD4320]; conditions: max 1 µM
# Procedure, shortened: as §1
# [9] = compound: C[C@@H](c1ccc2nccn2c1)n1nnc2ncc(-c3cnn(C)c3)nc21 [Savolitinib]; conditions: max 1 µM
# Procedure, shortened: as §1
# [10] = compound: C=CCn1c(=O)c2cnc(Nc3ccc(N4CCN(C)CC4)cc3)nc2n1-c1cccc(C(C)(C)O)n1 [AZD1775]; conditions: max 3 µM
# Procedure, shortened: as §1
# [11] = compound: N#Cc1cnc(Nc2cc(NC[C@H]3CNCCO3)c(C(F)(F)F)cn2)cn1 [SRA737]; conditions: max 10 µM
# Procedure, shortened: as §1
# [12] = compound: COc1cc2ncnc(Nc3ccc(F)c(Cl)c3)c2cc1OCCCN1CCOCC1 [Gefitinib]; conditions: max 10 µM
# Procedure, shortened: as §1
# [13] = compound: NC1(c2ccc(-c3nc4ccn5c(=O)[nH]nc5c4cc3-c3ccccc3)cc2)CCC1 [MK-2206]; conditions: max 10 µM
# Procedure, shortened: as §1
# [14] = compound: C[C@@H](Oc1cc(-c2cnn(C3CCNCC3)c2)cnc1N)c1c(Cl)ccc(F)c1Cl [Crizotinib]; conditions: max 10 µM
# Procedure, shortened: as §1
# [15] = compound: C1CN(CCC1(C(=O)N[C@@H](CCO)C2=CC=C(C=C2)Cl)N)C3=NC=NC4=C3C=CN4 [AZD5363]; conditions: max 10 µM
# Procedure, shortened: as §1
# [16] = compound: COc1cc(Nc2ncc3c(n2)-c2ccc(Cl)cc2C(c2c(F)cccc2OC)=NC3)ccc1C(=O)O [Alisertib]; conditions: max 10 µM
# Procedure, shortened: as §1
# [17] = compound: Cc1nc(-c2cn3c(n2)-c2ccc(-c4cnn(C(C)(C)C(N)=O)c4)cc2OCC3)n(C(C)C)n1 [Taselisib]; conditions: max 10 µM
# Procedure, shortened: as §1
# [18] = compound: CC1=C(C(=CC=C1)Cl)NC(=O)C2=CN=C(S2)NC3=CC(=NC(=N3)C)N4CCN(CC4)CCO [Dasatinib]; conditions: max 2 µM
# Procedure, shortened: as §1
# [19] = compound: CC(=O)Nc1cccc(-n2c(=O)n(C3CC3)c(=O)c3c(Nc4ccc(I)cc4F)n(C)c(=O)c(C)c32)c1 [Trametinib]; conditions: max 1 µM
# Procedure, shortened: as §1
# [20] = compound: Cn1cnc2c(F)c(Nc3ccc(Br)cc3Cl)c(C(=O)NOCCO)cc21 [Selumetinib]; conditions: max 10 µM
# Procedure, shortened: as §1
# [21] = compound: COc1cc([C@@H]2c3cc4c(cc3[C@@H](O[C@@H]3O[C@@H]5CO[C@@H](C)O[C@H]5[C@H](O)[C@H]3O)[C@H]3COC(=O)[C@H]23)OCO4)cc(OC)c1O [Etoposide]; conditions: max 10 µM
# Procedure, shortened: as §1
# [22] = compound: O=C(Nc1ccc2[nH]nc(-c3ccncc3)c2c1)[C@@H]1CCN(CC(=O)N2CCN(c3ccc(-c4ncccn4)cc3)CC2)C1; conditions: max 5 µM
# Procedure, shortened: as §1
# [23] = compound: CN(C)CCCOc1ccc(-c2ccc3ncc4c(c3c2)n(C2CCOCC2)c(=O)n4C)cn1 [AZD0156]; conditions: max 3 µM
# Procedure, shortened: as §1
# [24] = compound: C[C@@H]1COCCN1C2=NC(=NC(=C2)C3(CC3)[S@](=N)(=O)C)C4=C5C=CNC5=NC=C4 [AZD6738]; conditions: max 10 µM
# Procedure, shortened: as §1
# [25] = compound: CC1=CN2[C@@H](C1)C=NC3=CC(=C(C=C3C2=O)OC)OCCCCCOC4=C(C=C5C(=C4)N=C[C@@H]6CC(=CN6C5=O)C)OC [SG3199]; conditions: max 0.001 µM
# Procedure, shortened: as §1
# [26] = compound: CC(=O)O[C@H]1C(=O)[C@@]2(C)[C@H]([C@H](OC(=O)c3ccccc3)[C@]3(O)C[C@H](OC(=O)[C@H](O)[C@@H](NC(=O)c4ccccc4)c4ccccc4)C(C)=C1C3(C)C)[C@]1(OC(C)=O)CO[C@@H]1C[C@@H]2O [Paclitaxel]; conditions: max 3 µM
# Procedure, shortened: as §1
# [27] = compound: COc1cccc(OCCCN)c1-c1cc(Nc2cnc(C#N)cn2)n[nH]1 [Prexasertib]; conditions: max 1 µM
# Procedure, shortened: as §1
# [28] = compound: Cc1c2c(nn1C)CSCc1cc(n(C)n1)CSc1cc(c3ccccc3c1)OCCCc1c(C(=O)O)n(C)c3c-2c(Cl)ccc13 [AZD5991]; conditions: max 1 µM
# Procedure, shortened: as §1
# [29] = compound: O=C(c1cc(Cc2n[nH]c(=O)c3ccccc23)ccc1F)N1CCN(C(=O)C2CC2)CC1 [Olaparib]; conditions: max 10 µM
# Procedure, shortened: as §1
# [30] = compound: O=c1[nH]cc(F)c(=O)[nH]1 [5-Fluorouracil]; conditions: max 20 µM
# Procedure, shortened: as §1
# [31] = compound: CS(=O)(=O)CCNCc1ccc(-c2ccc3ncnc(Nc4ccc(OCc5cccc(F)c5)c(Cl)c4)c3c2)o1 [Lapatinib]; conditions: max 10 µM
# Procedure, shortened: as §1
# [32] = compound: C1CC(C1)(C(=O)[O-])C(=O)[O-].N.N.[Pt+2] [Carboplatin]; conditions: max 10 µM
# Procedure, shortened: as §1
# [33] = compound: CCN(CCO)CCCOc1ccc2c(Nc3cc(CC(=O)Nc4cccc(F)c4)[nH]n3)ncnc2c1 [AZD2811]; conditions: max 1 µM
# Procedure, shortened: as §1
# [34] = compound: CCc1c2c(nc3ccc(O)cc13)-c1cc3c(c(=O)n1C2)COC(=O)[C@]3(O)CC [SN-38]; conditions: max 0.3 µM
# Procedure, shortened: as §1
# [35] = compound: C[C@@H](Nc1cc(F)cc(F)c1)c1cc(C(=O)N(C)C)cc2c(=O)cc(N3CCOCC3)oc12 [AZD8186]; conditions: max 10 µM
# Procedure, shortened: as §1
Cell Line,"IC50, cell viability 72 h [1]","IC50, cell viability 72 h [2]","IC50, cell viability 72 h [3]","IC50, cell viability 72 h [4]","IC50, cell viability 72 h [5]","IC50, cell viability 72 h [6]","IC50, cell viability 72 h [7]","IC50, cell viability 72 h [8]","IC50, cell viability 72 h [9]","IC50, cell viability 72 h [10]","IC50, cell viability 72 h [11]","IC50, cell viability 72 h [12]","IC50, cell viability 72 h [13]","IC50, cell viability 72 h [14]","IC50, cell viability 72 h [15]","IC50, cell viability 72 h [16]","IC50, cell viability 72 h [17]","IC50, cell viability 72 h [18]","IC50, cell viability 72 h [19]","IC50, cell viability 72 h [20]","IC50, cell viability 72 h [21]","IC50, cell viability 72 h [22]","IC50, cell viability 72 h [23]","IC50, cell viability 72 h [24]","IC50, cell viability 72 h [25]","IC50, cell viability 72 h [26]","IC50, cell viability 72 h [27]","IC50, cell viability 72 h [28]","IC50, cell viability 72 h [29]","IC50, cell viability 72 h [30]","IC50, cell viability 72 h [31]","IC50, cell viability 72 h [32]","IC50, cell viability 72 h [33]","IC50, cell viability 72 h [34]","IC50, cell viability 72 h [35]"
EFO-21 (Ovarian Carcinoma),> 0.3 µM,> 10 µM,> 0.3 µM,> 1 µM,> 1 µM,> 1 µM,> 10 µM,> 1 µM,> 1 µM,> 3 µM,> 10 µM,> 10 µM,> 10 µM,> 10 µM,> 10 µM,> 10 µM,> 10 µM,> 2 µM,> 1 µM,> 10 µM,> 10 µM,> 5 µM,> 3 µM,> 10 µM,> 0.001 µM,> 3 µM,0.101 µM,> 1 µM,> 10 µM,> 20 µM,> 10 µM,> 10 µM,> 1 µM,> 0.3 µM,> 10 µM
HAL-01 (B-Lymphoblastic Leukemia),> 0.3 µM,1.89 µM,0.00247 µM,0.496 µM,0.109 µM,0.0918 µM,> 10 µM,0.496 µM,> 1 µM,0.327 µM,0.528 µM,> 10 µM,1 µM,2.84 µM,> 10 µM,0.109 µM,0.36 µM,> 2 µM,> 1 µM,> 10 µM,2.7 µM,> 5 µM,> 3 µM,0.652 µM,> 0.001 µM,0.335 µM,0.0166 µM,> 1 µM,> 10 µM,> 20 µM,> 10 µM,> 10 µM,> 1 µM,0.00569 µM,1.13 µM
KGN (Other Solid Carcinomas),> 0.3 µM,2.85 µM,0.00601 µM,0.095 µM,> 1 µM,0.153 µM,> 10 µM,> 1 µM,> 1 µM,0.49 µM,> 10 µM,> 10 µM,> 10 µM,4.34 µM,> 10 µM,1.59 µM,2.32 µM,0.167 µM,0.999 µM,> 10 µM,2 µM,> 5 µM,> 3 µM,2.75 µM,> 0.001 µM,0.0128 µM,0.117 µM,> 1 µM,> 10 µM,> 20 µM,> 10 µM,> 10 µM,0.451 µM,0.00895 µM,3.86 µM
KMRC-1 (Kidney Carcinoma),> 0.3 µM,> 10 µM,0.133 µM,> 1 µM,> 1 µM,> 1 µM,> 10 µM,> 1 µM,> 1 µM,> 3 µM,> 10 µM,> 10 µM,> 10 µM,> 10 µM,> 10 µM,> 10 µM,> 10 µM,0.711 µM,> 1 µM,> 10 µM,> 10 µM,> 5 µM,> 3 µM,> 10 µM,> 0.001 µM,> 3 µM,0.588 µM,> 1 µM,> 10 µM,> 20 µM,> 10 µM,> 10 µM,> 1 µM,> 0.3 µM,3.16 µM
MDA-MB-453 (Breast Carcinoma),> 0.3 µM,> 10 µM,> 0.3 µM,> 1 µM,> 1 µM,0.349 µM,> 10 µM,> 1 µM,> 1 µM,1.51 µM,> 10 µM,> 10 µM,3.56 µM,> 10 µM,8.59 µM,> 10 µM,0.521 µM,> 2 µM,> 1 µM,> 10 µM,> 10 µM,> 5 µM,> 3 µM,3.96 µM,> 0.001 µM,0.509 µM,0.0429 µM,> 1 µM,> 10 µM,> 20 µM,> 10 µM,> 10 µM,> 1 µM,0.0682 µM,> 10 µM
SK-LU-1 (Lung Adenocarcinoma),> 0.3 µM,> 10 µM,> 0.3 µM,,> 1 µM,> 1 µM,> 10 µM,> 1 µM,> 1 µM,1.15 µM,> 10 µM,> 10 µM,> 10 µM,> 10 µM,> 10 µM,,> 10 µM,> 2 µM,> 1 µM,> 10 µM,> 10 µM,> 5 µM,> 3 µM,> 10 µM,,> 3 µM,,> 1 µM,> 10 µM,> 20 µM,> 10 µM,> 10 µM,> 1 µM,0.145 µM,> 10 µM
